Results reported in US20250115926A1, “DEREGULATED DHS AND TYRA ENZYMES OF GRASSES ENABLE EFFICIENT PRODUCTION OF BOTH TYROSINE AND PHENYLALANINE” (Wisconsin Alumni Research Foundation, priority 2023, published 2025).
“And” between values parts separate entries of the source, which are not always exact repeats. Identical values can stand only once.

Tests used:
Test in all cases: TyrA arogenate dehydrogenase kinetics and tyrosine inhibition (340 nm)
Assay type in all cases: biochemical
[1] = target: T1, Sorghum bicolor SbTyrAnc (non-canonical TyrA), SEQ ID NO: 43, recombinant (Sorghum bicolor, UniProt C5Z447)
T1 construct: from cDNA
T1 sequence (C5Z447 56-382): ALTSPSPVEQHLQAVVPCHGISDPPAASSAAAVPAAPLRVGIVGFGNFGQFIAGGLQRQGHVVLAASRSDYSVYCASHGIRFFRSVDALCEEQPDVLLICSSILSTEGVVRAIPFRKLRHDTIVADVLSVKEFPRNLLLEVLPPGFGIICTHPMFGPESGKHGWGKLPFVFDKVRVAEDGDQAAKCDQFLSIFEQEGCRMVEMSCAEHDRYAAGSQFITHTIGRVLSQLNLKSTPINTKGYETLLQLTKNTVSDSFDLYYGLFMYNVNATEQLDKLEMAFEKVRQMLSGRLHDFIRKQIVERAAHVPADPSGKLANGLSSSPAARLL
Excerpt: (§1) Next, to study the biochemical properties of grass TyrA enzymes, we generated and characterized recombinant purified TyrA proteins from Brachypodium (BdTyrA) and Sorghum (SbTyrA), two distantly related grass species^43, 44. Whereas TyrA enzymes from dicot plants are generally NADP^+-dependent arogenate dehydrogenases^20, 39, 45, except for NADP^+-prephenate dehydrogenases in the legume family^40, 46, previous reports on the substrate preference of grass TyrA enzymes are inconclusive^17, 19. […] NAD^+-prephenate dehydrogenase activity was absent in all cases, ruling out a significant contamination of the enzyme preparations with the TyrA enzyme from E. coli^47.48.

[2] = target: T2, Sorghum bicolor SbTyrA1, SEQ ID NO: 39, recombinant (Sorghum bicolor, UniProt A0A194YLK4)
T2 construct: from genomic DNA
T2 sequence (A0A194YLK4 475-836): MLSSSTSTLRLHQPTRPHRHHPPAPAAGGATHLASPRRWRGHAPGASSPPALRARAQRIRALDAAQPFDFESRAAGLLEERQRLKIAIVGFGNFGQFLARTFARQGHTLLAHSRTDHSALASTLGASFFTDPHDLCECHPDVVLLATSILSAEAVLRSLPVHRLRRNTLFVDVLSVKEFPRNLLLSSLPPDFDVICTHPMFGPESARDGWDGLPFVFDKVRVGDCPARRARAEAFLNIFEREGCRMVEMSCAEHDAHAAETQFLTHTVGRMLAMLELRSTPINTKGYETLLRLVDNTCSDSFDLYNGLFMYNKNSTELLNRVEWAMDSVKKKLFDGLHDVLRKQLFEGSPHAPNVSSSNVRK
Excerpt: as §1

[3] = target: T3, Brachypodium distachyon BdTyrA2, SEQ ID NO: 35, recombinant (Brachypodium distachyon, UniProt I1GWX1)
T3 sequence (I1GWX1 55-365): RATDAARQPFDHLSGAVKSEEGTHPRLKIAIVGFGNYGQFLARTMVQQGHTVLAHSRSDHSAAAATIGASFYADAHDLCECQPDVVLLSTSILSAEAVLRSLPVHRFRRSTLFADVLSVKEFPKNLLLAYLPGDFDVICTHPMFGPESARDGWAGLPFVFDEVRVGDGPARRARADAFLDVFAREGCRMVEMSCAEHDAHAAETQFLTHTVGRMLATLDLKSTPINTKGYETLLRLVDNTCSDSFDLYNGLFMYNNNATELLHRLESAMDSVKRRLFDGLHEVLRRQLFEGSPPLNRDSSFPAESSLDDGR
Excerpt: as §1

N[C@@H](Cc1ccc(O)cc1)C(=O)O [tyrosine]
IC50 [1]: 406 ± 85 µM | Ki [1]: 137 ± 44 µM | IC50 [2]: 71 µM | Ki [2]: 53 ± 10 µM | activity at 200 μM of tyrosine ([3]; 200 μM tyrosine): fully inactive | IC50 ([3]; IC50 (tyrosine), 0.5 mM arogenate, 1 mM NADP^+): ~20 µM and 20 µM | Ki ([3]; calculated from Km and IC50, competitive inhibition model): 8 ± 2 µM
